Results from patent US11273201B2, “Compositions and methods for inducing thrombopoiesis” (Hadasit Medical Research Services and Development Ltd., priority 2013, dated 2022).

Legend:
[1] = tested on: LAMA-84 cells; test: Release of CD41+ platelet-like particles from LAMA-84 cultures (flow cytometry); assay type: cell-based, Human
Procedure: (§1) Platelets release into the differentiated cultures was assessed via flow cytometry analysis of the supernatants. Specifically, the culture medium was collected and centrifuged at 150×g for 20 minutes to remove the nucleated cells. The supernatant was then centrifuged at 500×g for 20 minutes to pellet the platelets. Sediments containing platelets and platelet-like particles were resuspended in culture medium in 500 μl aliquots and labeled using anti-CD41-FITC. Cells were analyzed by FACScalibur for CD41 expression and log amplification of forward scatter (FCS) and side scatter (SSC).

[2] = tested on: LAMA-84 cells; test: PMA-induced megakaryocytic differentiation of LAMA-84 cells (morphology, CD41/CD71 flow cytometry, PI ploidy); assay type: cell-based, Human
Procedure: LAMA-84 cells were maintained in RPMI1640 containing 10% fetal calf serum, 100 U/ml penicillin, 100 μg/ml streptomycin and 2 mM glutamine. To induce differentiation, the cell culture was supplemented with 0.6-5 ng/ml PMA or 50 μM Hemin and cells were harvested and analyzed 1-5 days following treatment.
(§2) To determine the extent of maturation toward MKs 1×10^6 cultured cells (LAMA-84 or CD34+ cells) were washed and then labeled with anti-CD41-FITC (GpIIb/IIIa, BD Bioscience, USA), or anti CD71-FITC or combination of anti-CD33-FITC, anti-CD41-PE, and CD34-APC (Beckman Coulter, USA) and analyzed using FACScalibur (Becton Dickinson, USA) for the percentage of CD41^+ cells generated.
(§3) To determine the amount of ploidy, differentiated LAMA-84 cells were fixed overnight in 75% ethanol at 4° C., labeled with propidium iodide (PI, 50 μg/ml) and analyzed using FACScalibur. Fourteen day differentiated CD34+ were analyzed quantitatively under a microscope following May Grumwald/Giemsa staining for the number of nuclei per cell. Only cells with MK morphology were analyzed.
LAMA-84 cell differentiation following PMA treatment was studied via morphological staining of the cells with May Grunwald/Giemsa and via flow cytometry analysis of CD41 (MK marker) and CD71 (erythroid marker) expression. Moreover, ploidy, a marker of MK differentiation, was also determined by flow cytometry using propidium iodide (PI). A range of PMA concentrations was tested and differentiation was obtained at 0.6-10 ng/ml PMA.

[3] = tested on: LAMA-84 derived PLPs; test: Aggregation of LAMA-84 derived platelet-like particles (AGGRAM aggregometer); assay type: cell-based, Human; details: PMA treated LAMA-84 culture-derived PLPs
Procedure: Platelets and Platelet like particles generated from platelets-poor plasma e.g. LAMA-84 differentiated cells were tested for their functionality in aggregation assays using an AGGRAM aggregometer (Helena Laboratories, Beaumont, Tex.) according to the manufacturer's instructions using various agonists: adenosine diphosphate (ADP) (11 μM), arachidonic acid (AA) (1.6 μM), Epinephrine (50 μM), Ristocetin (1.6 mM) (Diamed AG, Morat, Switzerland) or collagen (5 μg/ml) (Helena Laboratories, Beaumont, Tex.).

[4] = tested on: Livin, Survivin, XIAP; test: Western blot of IAP family proteins during LAMA-84 differentiation; assay type: cell-based, Human
Procedure: Whole cell lysates were prepared from 0.25-1×10^6 cells using 100 μl lysis buffer [20 mM Tris-HCl, 2 mM EDTA, 6 mM β-Mercaptoethanol, 1% Nonidet P-40 (NP-40), 0.1% SDS and protease inhibitors] at 4° C. for 20 min, with vigorous vortex mixing. Antibodies used were: monoclonal antibody against Livin (clone 88C570) (Imgenex, USA) diluted 1:3000 and Survivin 6E4 monoclonal antibody (Cell Signaling Technology, USA), followed by Envision-HRP (DAKO, Denmark) as a secondary antibody; Polyclonal antibody against XIAP (Cell Signaling Technology, USA), followed by anti-rabbit IgG HRP-linked antibody (Cell Signaling Technology, USA) as a secondary antibody. For immunoprecipitation, equal amounts of protein lysates were pre-cleared with Protein A/G-Agarose (Santa Cruz, USA) together with 1 μg of mouse IgG. Livin was immunoprecipitated from the cleared lysates (using clone 88C570) and the immune complexes were precipitated with Protein A/G-Agarose.
The expression of anti-apoptotic proteins of the […] (IAPs) during the differentiation of LAMA-84 cells towards MKs was analyzed by Western blot analysis. […] Note that in contrast to Livin, the level of Survivin decreased when cells were treated with PMA (FIG. 2E).

[5] = tested on: caspase-3; test: Caspase-3 activity in LAMA-84 cell extracts (CaspACE colorimetric); assay type: cell-based, Human; details: day 4, PMA treated LAMA-84 stably over-expressing construct
Procedure: Extracts from 1×10^6 cells were prepared by the freeze-thaw method assayed for caspase-3 activity using CaspACE™ Assay System, Colorimetric (Promega, USA), according to manufacturer's instructions.
To address the mechanism of action of Livin in MKs differentiation, LAMA-84 cells were stably transfected to over-express Livin and the expression and effects of Livin protein during MKs differentiation were tested by means of Western blot analysis, caspase-3 activity, CD41 expression evaluated by flow cytometry and platelets functionality evaluated by aggregation assay (FIGS. 4A-4D). Specifically, control LAMA-84 cells (EV, empty vector) and LAMA-84 cells stably over expressing wild-type Livin or Livin mutant lacking pro-apoptotic activity (LivinRING) were treated with PMA for 5 Days. Cells were harvested at 12, 24, 48 and 96 hours for evaluation.

[6] = tested on: Human CD34+ cells; test: CD41+ platelets released from differentiated CD34+ cultures (flow cytometry); assay type: cell-based; details: day 14, SCF and TPO
Procedure: as §1
The following experiments evaluated whether functional platelets were generated from the human CD34^+ cell cultures that were transduced with Livin, LivinRING or control empty vector and grown for 14 days under MK differentiating conditions with the addition of SCF and TPO. Platelets released into the media were characterized for CD41 expression and functionality by CD62P up regulation via flow cytometry.

[7] = tested on: Human CD34+ cells; test: Megakaryocyte differentiation of cord blood CD34+ cells with SCF and TPO (CD41, CD33, nuclei number, Western blot); assay type: cell-based
Procedure: Human CD34+ cells were cultured in Iscove's medium (IMDM) (1×10^5 cells/well) and induced to differentiate into MKs in the presence of 10 ng/ml stem cell factor (SCF) and 50 ng/ml thrombopoietin (TPO), freshly supplemented every 3 days. Cells were harvested and analyzed on day 14.
293T cells were infected to produce the virus and supernatant from 48 and 72 hours were infected into both LAMA-84 and CD34+ cells during their differentiation induction phase. In order to over-express Livin both LAMA-84 and CD34+ cells were infected following 1 day of differentiation with pWZL IRES-blasticidin vector expressing wild-type Livin (Livin β), LivinRING (Livin β RING), or empty vector (EV). For down-regulating expression of endogenous Livin, LAMA-84 were transfected by electroporation with pSUPER-Livin-2 (Livin siRNA) or pSUPER-luc (control siRNA) vectors^35 together with pWZL IRES-blasticidin 1 day following differentiation initiation. For down-regulating expression of endogenous Livin in CD34+ cells, cells were infected 1 day after differention with supernatant containing the pSUPER viruses generated by 293T cells.
as §2, §3
To investigate the effect of Livin on primary MK progenitors, human CD34+ cells isolated from cord blood samples, were transduced with Livin, LivinRING or control empty vector and grown for 14 days under MK differentiating conditions with the addition of stem cell factor (SCF) and thrombopoeitin (TPO)^41. At the terminal stages of primary MKs maturation CD34+ cell cultures were examined morphologically, analyzed for CD41 expression and polyploidy via flow cytomery, and Livin expression and cleavage via Western Blot.

[8] = tested on: platelets derived from CD34+ cultures; test: Platelet activation by CD62P expression, platelets from CD34+ cultures; assay type: cell-based, Human; details: platelets from over-expressing CD34+ cultures
Procedure: Since the number of platelets generated from CD34+ cultures was low, platelets derived from these cultures were stimulated for 15 minutes at room temperature (RT) with ADP or AA and activation was assessed via flow cytometry analysis of CD62P (Pselectin)-PE (Beckman Coulter) expression (up regulation of CD62P implies activation).

## CCCCCCCCCCCCCC(=O)O[C@@H]1[C@@H](C)[C@@]2(O)[C@@H](C=C(CO)C[C@]3(O)C(=O)C(C)=C[C@@H]23)[C@@H]2C(C)(C)[C@]12OC(C)=O [PMA, Phorbol myristate acetate]
[1]; after incubation with PMA, untreated 6.5%±2.2%
  Percentage of CD41+ PLPs released to culture medium: 24.3%±3.6%
[2]; 4 days of exposure to 5 ng/ml PMA
  Ploidy (PI flow cytometry): underwent polyploidization (8N, 16N and 32N)
[2]; 4 days, 5 ng/ml PMA, untreated 8.8%±5.6%
  CD41 expression (percent CD41 positive cells): 81.9%±10%
[2]; LAMA-84 cells after PMA induction
  Morphology (May Grunwald/Giemsa): marked increase in cell size and extensive multinuclearity
[2]; LAMA-84 cells, range of PMA concentrations tested
  PMA concentration at which differentiation was obtained: 0.6 to 10 ng/mL
[3]
  Aggregation of PLPs in response to Epinephrine, collagen, ADP: aggregated
[4]; PMA differentiation, cleaved 30 kDa fragment appears
  Level of full length XIAP: dose dependent significant decrease
[4]; PMA-induced differentiation, not detected in untreated cells
  Livin protein expression: up-regulated
[4]; cells treated with PMA
  Survivin level: decreased

## Hemin
[2]; Hemin, erythroid differentiation negative control
  CD41 expression levels: did not increase CD41 expression levels
[4]; Hemin negative control
  Levels of IAP family proteins tested: did not regulate the levels

B1: wild-type Livin: Livin β (SEQ ID NO: 5 cDNA) over-expressed from pWZL IRES-blasticidin retroviral vector (protein, listed as Homo sapiens)
chain: MGPKDSAKCLHRGPQPSHWAAGDGPTQERCGPRSLGSPVLGLDTCRAWDHVDGQILGQLRPLTEEEEEEGAGATLSRGPAFPGMGSEELRLASFYDWPLTAEVPPELLAAAGFFHTGHQDKVRCFFCYGGLQSWKRGDDPWTEHAKWFPSCQFLLRSKGRDFVHSVQETHSQLLGSWDPWEEPEDAAPVAPSVPASGYPELPTPRREVQSESAQEPGARDVEAQLRRLQEERTCKVCLDRAVSIVFVPCGHLVCAECAPGLQLCPICRAPVRSRVRTFLS
[1]; day 4, PMA treated LAMA-84 over-expressing construct
  Number of CD41+ PLPs versus control (empty vector) cells: produced more PLPs
[5]
  Caspase-3 enzyme activity: induced caspase-3 activation
[6]
  Platelets produced (CD41+) compared to empty vector control: 4.3±1 fold
[7]; day 14, SCF and TPO, p=0.029
  Increase in percentage of CD41 stained cells compared to empty vector: 3.7±1 fold
[7]; day 14, n=9, control cells 7.4±6.9%
  CD33 expression of differentiated CD41+ cells: 22.6±39.8%
[7]; day 14, versus LivinRING or empty vector (p=0.01 and 0.02)
  Multi-nucleated MKs (≥4 nuclei): significant increase
[7]; day 14, versus naive and empty vector CD34+ cultures
  Livin and tLivin protein levels (Western blot): robust levels
[8]
  Platelet activity in response to arachidonic acid (CD62P up regulation): demonstrated activity
[4]; LAMA-84 over-expressing wild-type Livin, PMA, 96 h
  Cleavage of Livin (Western blot): underwent cleavage only at the terminal stage of differentiation
